Data set [1] relates to multidrug-resistant strains of HIV. Particulars: cited from earlier work.
The next data set can be described thus: Solubility in water. It is filed as physicochemical.
In the next data set the test system is MT-2 cell line. Nature of the data set: Cell viability assay. The format is cell-based, human. Particulars: MTT assay, concentrations up to 100 μM. In general terms: Formazan colour is commonly taken as a measure of viable cells.
The test system of data set [2] is TZM-BL (derived from Hela Cells). The data set is described as follows: Cytotoxicity screening, Promega CellTiter-Glo Luminescent Cell Viability Assay. It is filed as cell-based. Particulars: Homo sapiens, read-out: IC50 (μM), concentration that inhibits cell growth by 50%.

Each structure is given as a SMILES string. Entries after “also recorded” stand apart in the source; their conditions may differ. Like-named read-outs stand apart in the source and are kept apart here.

The term EC50 denotes the concentration giving half of the maximal effect. Turning to `Cc1cn([C@H]2C[C@H](O)[C@](CO)(N=[N+]=[N-])O2)c(=O)[nH]c1=O` [4′-C-azidothymidine], the EC50 in data set [1] was 0.34 µM. For `[N-]=[N+]=N[C@]1(CO)O[C@@H](n2ccc(N)nc2=O)[C@@H](F)[C@@H]1O` [Compound 10, 1-(4′-azido-2′-deoxy-2′-fluoro-β -D-arabinofuranosyl)cytosine], the solubility in “Solubility in water” (water) was found to be 3.1 g in 100 g water. The “cytotoxicity / effect on cell growth” value in the data set with MT-2 cell line is recorded as “did not show significant cytotoxicity; also recorded: without significant cytotoxicity; also recorded: no significant effect on cell growth or any cytotoxic effect”.

Compound `Cl.[N-]=[N+]=N[C@]1(CO)O[C@@H](n2ccc(N)nc2=O)[C@@H](F)[C@@H]1O` [Compound 11] showed a solubility in the data set “Solubility in water” of 14.3 g in 100 g water. The “cytotoxicity / effect on cell growth” value with MT-2 cell line is “did not show significant cytotoxicity; also recorded: without significant cytotoxicity; also recorded: no significant effect on cell growth or any cytotoxic effect”.

For `Cl.[N-]=[N+]=N[C@]1(CO)O[C@@H](n2ccc(N)nc2=O)[C@@H](F)[C@@H]1O` [Compound 11, 1-(4-azido-2-deoxy-2-fluoro)-β-D-arabinofuranosyl)cytosine hydrochloride salt], the IC50 in data set [2] is greater than 140 µM.

Values taken from PMC3164908 (European journal of medicinal chemistry, 2011).
